Experiment [1] has as its target T1, GPR97 (Homo sapiens, UniProt Q86Y34).
T1 construct: gene ADGRG3; full-length human protein with N-terminal glutathione S-transferase tag on microarray
The experiment in a line: HuProt human proteome microarray with biotin-labeled dexamethasone ([…]). Format: binding.

The target of experiment [2] is T2, Tau (Homo sapiens, UniProt P10636).
T2 construct: gene MAPT; purified Tau protein
The experiment in a line: one-step kinetic SPR (KD […]); solid phase binding with biotin-dexamethasone ([…]); DARTS in Raw264.[…] lysate ([…]).

Structures are written as SMILES.

T2 sequence (P10636 1-441 isoform P10636-8): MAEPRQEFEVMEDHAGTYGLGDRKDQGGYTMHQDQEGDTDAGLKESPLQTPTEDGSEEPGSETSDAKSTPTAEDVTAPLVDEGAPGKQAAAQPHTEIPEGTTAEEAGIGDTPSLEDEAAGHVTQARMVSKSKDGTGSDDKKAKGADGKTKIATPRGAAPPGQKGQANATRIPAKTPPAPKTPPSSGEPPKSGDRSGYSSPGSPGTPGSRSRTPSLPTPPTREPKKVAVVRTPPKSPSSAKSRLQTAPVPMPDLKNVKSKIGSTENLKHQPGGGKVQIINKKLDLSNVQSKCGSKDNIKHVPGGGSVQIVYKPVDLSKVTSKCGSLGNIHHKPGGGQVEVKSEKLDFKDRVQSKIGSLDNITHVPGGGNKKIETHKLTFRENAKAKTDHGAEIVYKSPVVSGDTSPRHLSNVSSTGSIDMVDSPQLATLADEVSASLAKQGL
T1 sequence (Q86Y34 21-549): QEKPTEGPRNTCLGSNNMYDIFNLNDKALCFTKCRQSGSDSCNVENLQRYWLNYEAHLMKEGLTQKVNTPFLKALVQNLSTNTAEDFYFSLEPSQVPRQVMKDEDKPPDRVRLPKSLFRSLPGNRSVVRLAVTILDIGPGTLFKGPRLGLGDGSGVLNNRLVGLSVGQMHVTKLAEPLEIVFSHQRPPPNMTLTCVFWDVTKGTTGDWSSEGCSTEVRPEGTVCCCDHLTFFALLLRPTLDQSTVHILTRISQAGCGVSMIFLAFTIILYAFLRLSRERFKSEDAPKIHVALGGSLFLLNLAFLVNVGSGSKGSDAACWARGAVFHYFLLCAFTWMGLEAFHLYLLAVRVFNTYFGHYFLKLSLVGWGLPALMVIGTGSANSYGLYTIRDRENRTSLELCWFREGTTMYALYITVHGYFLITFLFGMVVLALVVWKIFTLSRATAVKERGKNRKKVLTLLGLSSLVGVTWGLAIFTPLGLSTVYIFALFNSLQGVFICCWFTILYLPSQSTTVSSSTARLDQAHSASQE

Consider `C[C@@H]1C[C@H]2[C@@H]3CCC4=CC(=O)C=C[C@]4(C)[C@@]3(F)[C@@H](O)C[C@]2(C)[C@@]1(O)C(=O)CO` [dexamethasone], for which the “HuProt human proteome microarray with biotin-labeled dexamethasone (0.2 and 400)” value in experiment [1] was “dexamethasone bound to GR and GPR97, two known receptors of dexamethasone”. In addition, the Kd (as a rule, the concentration at which binding is half-saturated) in experiment [2] was roughly 380 µM.

(Values after PMC11701132, “Tau is a receptor with low affinity for glucocorticoids and is required for glucocorticoid-induced bone loss” (Cell Research, 2025).)
